Measurements as given in ChEMBL document CHEMBL1201862, “PubChem BioAssay data set” (2004).
Activity calls are given as the source filed them.

Columns and labels:
[1] = molecular target: 26S proteasome non-ATPase regulatory subunit 14 (Homo sapiens, UniProt O00487); assay: inhibition of proteasome subunit RPN11 – biochemical, fluorescence polarization, uHTS hits, confirmation (AID 602368); format: functional
[2] = molecular target: 72 kDa type IV collagenase (Homo sapiens, UniProt P08253); assay: Dose Response validation of uHTS RPN11 inhibitor hits using a MMP-2 Fluorescence assay.; format: functional
Prothrombin = Prothrombin (Bos taurus, UniProt P00735); assay: thrombin inhibition, dose response, biochemical, fluorescence polarization, uHTS hits (AID 602369); format: functional
[3] = Shn3 3'UTR reporter inhibitors, dose response, cell-based, Clone20 osteoblasts, firefly luciferase, cherry-picked (AID 624132); format: functional;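 note: firefly luciferase luminescence from reporter carrying the Shn3 3'UTR in osteoblasts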
[4] = control 3'UTR Renilla luciferase suppression, dose response, counter-screen for Shn3 inhibitor project, cell-based, Clone20-Shn3RL, cherry-picked (AID 624133); format: functional
Protein Wnt-3a = Protein Wnt-3a (Mus musculus, UniProt P27467); assay: Wnt3a-driven reporter signaling inhibition, dose response, selectivity assay for Gli-SUFU antagonist project, Wnt-LIGHT cells, luminescence (AID 651570); format: functional; settings: read-out: IC50_Mean;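 note: Wnt-LIGHT reporter cells stimulated with conditioned medium from Wnt3a-producing cells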
Caspase-3 = molecular target: T1, Caspase-3 (Homo sapiens, UniProt P42574); format: functional;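 note: Dose-response selectivity test against caspase-3 for candidate inhibitors of sentrin-specific proteases (SENPs)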
T1 sequence (P42574 whole entry): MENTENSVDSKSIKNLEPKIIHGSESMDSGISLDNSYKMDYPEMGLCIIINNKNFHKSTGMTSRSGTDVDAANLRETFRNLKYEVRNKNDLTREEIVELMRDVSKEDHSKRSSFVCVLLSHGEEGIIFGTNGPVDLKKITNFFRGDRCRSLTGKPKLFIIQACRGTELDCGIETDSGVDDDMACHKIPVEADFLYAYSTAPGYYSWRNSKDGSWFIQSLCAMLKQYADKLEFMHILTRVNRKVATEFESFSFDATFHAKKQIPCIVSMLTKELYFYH

[5] = molecular target: T2, Sentrin-specific protease 7 (Homo sapiens, UniProt Q9BQF6); format: functional;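 note: Luminescence-based dose-response confirmation of ultra-high-throughput screening hits, measuring inhibition of SENP7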
T2 sequence (Q9BQF6 whole entry): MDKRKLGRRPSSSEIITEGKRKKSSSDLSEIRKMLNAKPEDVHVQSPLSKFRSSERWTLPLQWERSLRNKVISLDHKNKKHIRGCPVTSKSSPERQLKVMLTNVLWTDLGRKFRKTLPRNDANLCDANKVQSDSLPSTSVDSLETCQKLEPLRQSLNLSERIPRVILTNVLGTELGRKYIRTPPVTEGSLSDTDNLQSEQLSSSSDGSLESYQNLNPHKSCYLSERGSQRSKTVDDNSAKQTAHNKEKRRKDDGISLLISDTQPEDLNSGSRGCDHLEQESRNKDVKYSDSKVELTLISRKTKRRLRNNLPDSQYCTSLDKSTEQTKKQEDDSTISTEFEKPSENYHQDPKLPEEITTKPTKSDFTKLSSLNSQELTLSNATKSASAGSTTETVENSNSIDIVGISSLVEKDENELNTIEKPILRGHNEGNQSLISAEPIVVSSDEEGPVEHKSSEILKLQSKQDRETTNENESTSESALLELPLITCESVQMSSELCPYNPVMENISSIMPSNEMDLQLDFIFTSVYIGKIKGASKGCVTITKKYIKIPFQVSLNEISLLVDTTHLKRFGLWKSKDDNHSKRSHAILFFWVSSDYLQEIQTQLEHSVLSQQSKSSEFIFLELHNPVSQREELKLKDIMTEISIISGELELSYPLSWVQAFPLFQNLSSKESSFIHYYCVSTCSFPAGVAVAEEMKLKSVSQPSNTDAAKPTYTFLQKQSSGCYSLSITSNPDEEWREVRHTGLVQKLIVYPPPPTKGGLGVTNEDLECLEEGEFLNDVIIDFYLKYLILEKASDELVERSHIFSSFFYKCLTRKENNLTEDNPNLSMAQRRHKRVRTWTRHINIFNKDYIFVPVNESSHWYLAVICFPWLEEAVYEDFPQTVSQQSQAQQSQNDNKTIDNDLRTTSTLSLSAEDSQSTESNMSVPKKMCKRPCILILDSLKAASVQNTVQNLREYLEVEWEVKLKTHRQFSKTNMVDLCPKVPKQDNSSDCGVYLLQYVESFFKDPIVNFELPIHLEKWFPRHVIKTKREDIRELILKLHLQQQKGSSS

[6] = molecular target: T3, Sentrin-specific protease 6 (Homo sapiens, UniProt Q9GZR1); format: functional;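 note: Luminescence-based dose-response confirmatory assay of SENP6 inhibition, following up an ultra-high-throughput screen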
T3 sequence (Q9GZR1 whole entry): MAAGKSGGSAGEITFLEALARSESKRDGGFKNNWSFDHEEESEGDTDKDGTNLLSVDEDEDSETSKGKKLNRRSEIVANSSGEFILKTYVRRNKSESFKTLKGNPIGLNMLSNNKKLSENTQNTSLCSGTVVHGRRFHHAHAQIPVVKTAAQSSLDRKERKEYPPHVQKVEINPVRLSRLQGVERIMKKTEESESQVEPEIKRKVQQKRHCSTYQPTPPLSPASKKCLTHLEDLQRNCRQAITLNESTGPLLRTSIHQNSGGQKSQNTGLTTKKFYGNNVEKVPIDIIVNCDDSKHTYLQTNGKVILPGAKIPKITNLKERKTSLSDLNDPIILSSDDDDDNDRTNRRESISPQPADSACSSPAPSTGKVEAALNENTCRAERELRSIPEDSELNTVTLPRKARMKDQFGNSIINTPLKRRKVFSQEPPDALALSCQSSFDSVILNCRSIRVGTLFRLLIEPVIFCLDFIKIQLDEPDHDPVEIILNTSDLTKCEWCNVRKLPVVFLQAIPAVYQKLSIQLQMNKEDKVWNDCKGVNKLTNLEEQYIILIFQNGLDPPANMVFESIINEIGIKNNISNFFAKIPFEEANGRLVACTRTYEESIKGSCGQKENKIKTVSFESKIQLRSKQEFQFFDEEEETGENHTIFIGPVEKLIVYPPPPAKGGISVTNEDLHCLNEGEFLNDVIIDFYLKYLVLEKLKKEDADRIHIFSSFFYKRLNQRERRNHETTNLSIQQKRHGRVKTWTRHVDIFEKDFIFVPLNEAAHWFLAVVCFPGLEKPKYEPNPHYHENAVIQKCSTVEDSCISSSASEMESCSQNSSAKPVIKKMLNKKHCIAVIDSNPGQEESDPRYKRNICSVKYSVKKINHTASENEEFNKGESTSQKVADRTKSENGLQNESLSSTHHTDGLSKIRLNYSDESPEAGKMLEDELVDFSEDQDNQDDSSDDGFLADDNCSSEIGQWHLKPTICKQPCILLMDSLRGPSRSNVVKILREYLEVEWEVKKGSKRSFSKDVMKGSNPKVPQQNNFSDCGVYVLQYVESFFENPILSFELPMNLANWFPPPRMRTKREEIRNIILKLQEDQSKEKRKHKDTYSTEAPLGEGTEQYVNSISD

[7] = molecular target: T4, Sentrin-specific protease 8 (Homo sapiens, UniProt Q96LD8); format: functional;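 note: luminescence read-out of SENP8 inhibition, dose-response confirmation following an ultra-high-throughput screen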
T4 sequence (Q96LD8 whole entry): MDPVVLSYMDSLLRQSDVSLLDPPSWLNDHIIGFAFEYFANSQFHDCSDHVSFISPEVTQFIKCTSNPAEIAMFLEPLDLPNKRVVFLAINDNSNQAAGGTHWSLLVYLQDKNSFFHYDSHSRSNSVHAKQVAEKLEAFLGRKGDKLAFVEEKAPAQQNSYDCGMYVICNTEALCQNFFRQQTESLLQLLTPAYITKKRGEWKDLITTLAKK

[8] = molecular target: Induced myeloid leukemia cell differentiation protein Mcl-1 (Homo sapiens, UniProt Q07820); format: functional
[9] = molecular target: T5, Probable nicotinate-nucleotide adenylyltransferase (Staphylococcus aureus (strain N315), UniProt P65502); format: functional, Staphylococcus aureus subsp. aureus N315;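 for IC50 Mean: confirmatory dose-response retesting of NadD inhibitor hits first found in an ultra-high-throughput screen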
[10] = molecular target: T5, Probable nicotinate-nucleotide adenylyltransferase; format: functional, Staphylococcus aureus subsp. aureus N315; settings: read-out: IC50_Mean
Beta-lactamase [11] = molecular target: Beta-lactamase (Salmonella choleraesuis (strain SC-B67), UniProt Q5J463); assay: Epi-absorbance-based counterscreen for selective VIM-2 inhibitors: dose response biochemical high throughput screening assay to identify inhibitors of TEM-1 serine-beta-lactamase.
Beta-lactamase [12] = molecular target: T6, Beta-lactamase (Pseudomonas aeruginosa, UniProt Q79MP6); assay: IMP-1 metallo-beta-lactamase inhibitors, dose response, selectivity assay for VIM-2 inhibitor project, biochemical, epi-absorbance (AID 1920)
Beta-lactamase [13] = molecular target: T6, Beta-lactamase; assay: […] counterscreen for selective VIM-2 inhibitors: dose response biochemical high throughput screening assay to identify inhibitors of IMP-1 metallo-beta-lactamase.
Cytochrome P450 2C19 = Cytochrome P450 2C19 (Homo sapiens, UniProt P33261); assay: Cytochrome panel assay with activity outcomes. Panel member name: p450-cyp2c19 Compounds with AC50 equal or less than 10 uM are considered active; format: functional; settings: read-out: AC50
Cytochrome P450 3A4 = Cytochrome P450 3A4 (Homo sapiens, UniProt P08684);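 note: CYP3A4 tested as one member of a cytochrome P450 panel screen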
Cytochrome P450 2C9 = Cytochrome P450 2C9 (Homo sapiens, UniProt P11712)
[14] = HEp-2 cell cytotoxicity, dose response, cytotoxicity control for RSV inhibitor project, HTS (AID 2410); format: functional; settings: human respiratory syncytial virus
[15] = molecular target: Protein-tyrosine kinase 2-beta (Homo sapiens, UniProt Q14289);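 note: potency of inhibitors of PYK2 kinase phosphorylation of poly-GT substrate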
[16] = molecular target: T7, Adenosylmethionine-8-amino-7-oxononanoate aminotransferase (Mycobacterium tuberculosis, UniProt P9WQ81); assay: Mycobacterium tuberculosis BioA enzyme inhibitor Measured in Biochemical System Using Plate Reader - 2163-02_Inhibitor_Dose_CherryPick_Activity.; format: functional, Mycobacterium tuberculosis UT205
T7 sequence (P9WQ81 whole entry): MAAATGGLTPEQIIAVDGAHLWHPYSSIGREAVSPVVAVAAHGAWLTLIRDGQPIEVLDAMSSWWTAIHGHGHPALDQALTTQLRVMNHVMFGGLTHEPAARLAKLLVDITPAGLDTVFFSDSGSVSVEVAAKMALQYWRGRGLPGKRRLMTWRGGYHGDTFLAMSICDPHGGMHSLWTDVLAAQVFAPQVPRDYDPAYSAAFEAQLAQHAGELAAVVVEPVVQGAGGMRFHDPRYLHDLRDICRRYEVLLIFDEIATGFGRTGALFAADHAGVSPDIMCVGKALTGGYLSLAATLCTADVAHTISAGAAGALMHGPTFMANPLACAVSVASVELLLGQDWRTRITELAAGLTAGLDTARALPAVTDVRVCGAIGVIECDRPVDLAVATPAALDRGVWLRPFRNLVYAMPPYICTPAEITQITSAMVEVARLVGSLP

[17] = HepG2 cell cytotoxicity, dose response, cytotoxicity control for Shn3 inhibitor project, CellTiter-Glo, cherry-picked (AID 624134); format: functional, cell-based

T6 sequence (Q79MP6 whole entry): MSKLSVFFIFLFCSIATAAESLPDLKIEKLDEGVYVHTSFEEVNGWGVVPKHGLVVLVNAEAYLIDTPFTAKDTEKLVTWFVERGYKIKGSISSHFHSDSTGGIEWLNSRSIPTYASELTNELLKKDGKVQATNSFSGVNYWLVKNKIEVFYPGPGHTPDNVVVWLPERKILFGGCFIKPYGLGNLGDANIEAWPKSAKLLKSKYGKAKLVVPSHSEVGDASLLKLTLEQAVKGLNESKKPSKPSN
T5 sequence (P65502 whole entry): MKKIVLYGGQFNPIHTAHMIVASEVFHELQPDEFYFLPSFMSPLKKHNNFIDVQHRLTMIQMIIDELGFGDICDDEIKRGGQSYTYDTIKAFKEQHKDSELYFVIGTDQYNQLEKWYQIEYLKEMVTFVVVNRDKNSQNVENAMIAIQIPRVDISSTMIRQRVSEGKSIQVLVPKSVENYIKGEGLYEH
72 kDa type IV collagenase, sequence (P08253 whole entry): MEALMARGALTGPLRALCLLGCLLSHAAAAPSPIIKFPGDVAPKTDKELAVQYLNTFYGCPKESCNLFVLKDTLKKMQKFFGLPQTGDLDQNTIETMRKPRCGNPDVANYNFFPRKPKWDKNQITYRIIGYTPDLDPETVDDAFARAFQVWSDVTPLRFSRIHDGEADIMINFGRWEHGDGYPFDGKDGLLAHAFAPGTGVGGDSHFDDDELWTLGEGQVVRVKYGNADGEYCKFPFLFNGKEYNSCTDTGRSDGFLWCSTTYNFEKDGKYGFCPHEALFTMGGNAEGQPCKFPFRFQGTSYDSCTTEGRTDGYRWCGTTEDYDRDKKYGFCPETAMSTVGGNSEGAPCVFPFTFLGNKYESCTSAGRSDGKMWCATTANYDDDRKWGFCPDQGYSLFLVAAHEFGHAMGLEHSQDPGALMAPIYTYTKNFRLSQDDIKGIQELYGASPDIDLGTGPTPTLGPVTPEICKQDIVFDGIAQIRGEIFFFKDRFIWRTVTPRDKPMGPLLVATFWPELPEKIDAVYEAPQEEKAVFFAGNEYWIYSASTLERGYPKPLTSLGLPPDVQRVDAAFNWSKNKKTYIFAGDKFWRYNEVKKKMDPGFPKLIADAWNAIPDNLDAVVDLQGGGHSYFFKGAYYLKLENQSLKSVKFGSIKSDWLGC
Protein Wnt-3a, sequence (P27467 whole entry): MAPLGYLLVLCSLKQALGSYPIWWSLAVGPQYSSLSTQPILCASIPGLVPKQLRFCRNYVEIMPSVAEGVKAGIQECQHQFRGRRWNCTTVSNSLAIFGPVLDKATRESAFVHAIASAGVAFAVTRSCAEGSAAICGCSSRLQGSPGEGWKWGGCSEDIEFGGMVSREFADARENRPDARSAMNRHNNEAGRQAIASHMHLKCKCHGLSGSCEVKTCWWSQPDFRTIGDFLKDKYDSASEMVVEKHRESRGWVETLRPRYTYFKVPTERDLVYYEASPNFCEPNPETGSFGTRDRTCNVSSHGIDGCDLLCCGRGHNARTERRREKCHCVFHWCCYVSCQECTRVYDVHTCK
Beta-lactamase (Salmonella choleraesuis (strain SC-B67), UniProt Q5J463), sequence (Q5J463 whole entry): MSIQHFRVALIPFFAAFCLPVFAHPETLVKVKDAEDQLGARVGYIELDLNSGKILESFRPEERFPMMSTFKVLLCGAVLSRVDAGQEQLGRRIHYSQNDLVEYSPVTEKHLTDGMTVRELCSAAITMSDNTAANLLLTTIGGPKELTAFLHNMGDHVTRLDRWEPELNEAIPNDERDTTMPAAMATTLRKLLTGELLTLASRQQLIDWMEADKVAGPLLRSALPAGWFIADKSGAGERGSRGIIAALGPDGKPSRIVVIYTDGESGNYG
26S proteasome non-ATPase regulatory subunit 14, sequence (O00487 whole entry): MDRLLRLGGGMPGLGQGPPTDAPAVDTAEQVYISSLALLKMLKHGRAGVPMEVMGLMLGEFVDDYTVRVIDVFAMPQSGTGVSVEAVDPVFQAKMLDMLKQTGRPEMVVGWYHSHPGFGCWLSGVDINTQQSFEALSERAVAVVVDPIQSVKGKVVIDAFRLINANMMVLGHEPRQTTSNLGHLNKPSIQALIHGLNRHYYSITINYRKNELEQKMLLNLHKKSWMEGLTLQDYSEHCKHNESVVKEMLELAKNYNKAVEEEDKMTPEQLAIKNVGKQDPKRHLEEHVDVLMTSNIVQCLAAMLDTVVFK
Cytochrome P450 3A4, sequence (P08684 whole entry): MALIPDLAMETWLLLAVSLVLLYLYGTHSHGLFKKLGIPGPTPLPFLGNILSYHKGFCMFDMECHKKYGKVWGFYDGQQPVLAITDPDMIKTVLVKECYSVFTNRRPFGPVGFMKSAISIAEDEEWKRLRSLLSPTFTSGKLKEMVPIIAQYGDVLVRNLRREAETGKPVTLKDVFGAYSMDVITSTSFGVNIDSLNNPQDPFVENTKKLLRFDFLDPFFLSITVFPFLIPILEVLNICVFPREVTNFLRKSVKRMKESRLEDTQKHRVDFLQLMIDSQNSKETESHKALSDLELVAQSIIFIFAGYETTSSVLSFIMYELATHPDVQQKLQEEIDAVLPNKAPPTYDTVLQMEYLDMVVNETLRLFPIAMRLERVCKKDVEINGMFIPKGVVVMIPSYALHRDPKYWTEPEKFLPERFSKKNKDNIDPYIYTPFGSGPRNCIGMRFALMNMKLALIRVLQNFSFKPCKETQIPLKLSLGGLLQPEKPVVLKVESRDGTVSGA
Cytochrome P450 2C19, sequence (P33261 whole entry): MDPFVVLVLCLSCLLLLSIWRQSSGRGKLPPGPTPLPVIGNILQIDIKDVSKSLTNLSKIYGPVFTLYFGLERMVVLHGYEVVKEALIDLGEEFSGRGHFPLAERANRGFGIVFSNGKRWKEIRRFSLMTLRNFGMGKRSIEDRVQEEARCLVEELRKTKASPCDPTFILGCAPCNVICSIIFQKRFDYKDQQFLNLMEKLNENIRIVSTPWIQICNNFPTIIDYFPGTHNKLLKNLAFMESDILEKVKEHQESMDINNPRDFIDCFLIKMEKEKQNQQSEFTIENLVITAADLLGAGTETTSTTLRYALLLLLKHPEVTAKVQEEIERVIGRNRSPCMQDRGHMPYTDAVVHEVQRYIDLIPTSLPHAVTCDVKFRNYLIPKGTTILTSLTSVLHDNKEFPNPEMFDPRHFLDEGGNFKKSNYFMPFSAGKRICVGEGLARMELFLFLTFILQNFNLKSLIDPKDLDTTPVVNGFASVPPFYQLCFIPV
Protein-tyrosine kinase 2-beta, sequence (Q14289 whole entry): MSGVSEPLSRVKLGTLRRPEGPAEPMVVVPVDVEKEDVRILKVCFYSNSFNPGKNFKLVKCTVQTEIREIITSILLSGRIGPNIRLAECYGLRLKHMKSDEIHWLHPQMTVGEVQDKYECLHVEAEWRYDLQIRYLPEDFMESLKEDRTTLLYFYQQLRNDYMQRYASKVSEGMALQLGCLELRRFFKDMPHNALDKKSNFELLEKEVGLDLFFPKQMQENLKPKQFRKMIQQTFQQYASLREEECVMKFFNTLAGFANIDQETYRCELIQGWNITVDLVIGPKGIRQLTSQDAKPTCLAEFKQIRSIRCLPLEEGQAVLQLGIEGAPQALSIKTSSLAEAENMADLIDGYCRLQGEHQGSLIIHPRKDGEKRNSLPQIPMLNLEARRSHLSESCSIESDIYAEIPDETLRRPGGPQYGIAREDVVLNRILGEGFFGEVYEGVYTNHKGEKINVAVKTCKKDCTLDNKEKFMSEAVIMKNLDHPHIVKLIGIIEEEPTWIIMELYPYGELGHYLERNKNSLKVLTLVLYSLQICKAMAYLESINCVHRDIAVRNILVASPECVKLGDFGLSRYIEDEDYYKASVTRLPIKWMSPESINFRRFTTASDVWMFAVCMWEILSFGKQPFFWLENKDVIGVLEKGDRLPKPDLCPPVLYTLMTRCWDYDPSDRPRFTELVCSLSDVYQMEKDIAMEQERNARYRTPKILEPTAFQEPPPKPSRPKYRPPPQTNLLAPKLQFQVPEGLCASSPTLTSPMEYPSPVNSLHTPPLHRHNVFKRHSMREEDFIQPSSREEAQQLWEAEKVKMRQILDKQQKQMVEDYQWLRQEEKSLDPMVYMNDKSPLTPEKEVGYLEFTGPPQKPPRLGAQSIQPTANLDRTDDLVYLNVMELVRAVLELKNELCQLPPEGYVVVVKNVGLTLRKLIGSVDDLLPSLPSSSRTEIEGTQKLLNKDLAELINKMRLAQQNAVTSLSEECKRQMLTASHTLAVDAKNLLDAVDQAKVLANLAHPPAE
Cytochrome P450 2C9, sequence (P11712 whole entry): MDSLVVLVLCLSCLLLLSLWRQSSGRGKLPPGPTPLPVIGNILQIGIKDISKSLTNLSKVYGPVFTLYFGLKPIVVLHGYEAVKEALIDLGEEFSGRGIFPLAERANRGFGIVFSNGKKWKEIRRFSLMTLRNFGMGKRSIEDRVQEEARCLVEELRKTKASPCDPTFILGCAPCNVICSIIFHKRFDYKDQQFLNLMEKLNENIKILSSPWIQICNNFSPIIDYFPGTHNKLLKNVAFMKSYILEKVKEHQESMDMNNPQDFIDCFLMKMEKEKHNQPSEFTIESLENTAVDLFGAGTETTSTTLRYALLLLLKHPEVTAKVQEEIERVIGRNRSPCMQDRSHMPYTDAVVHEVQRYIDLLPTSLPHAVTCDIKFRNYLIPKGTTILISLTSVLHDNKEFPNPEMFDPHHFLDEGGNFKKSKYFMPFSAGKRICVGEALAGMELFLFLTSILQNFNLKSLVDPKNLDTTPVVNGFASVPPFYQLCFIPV
Induced myeloid leukemia cell differentiation protein Mcl-1, sequence (Q07820 whole entry): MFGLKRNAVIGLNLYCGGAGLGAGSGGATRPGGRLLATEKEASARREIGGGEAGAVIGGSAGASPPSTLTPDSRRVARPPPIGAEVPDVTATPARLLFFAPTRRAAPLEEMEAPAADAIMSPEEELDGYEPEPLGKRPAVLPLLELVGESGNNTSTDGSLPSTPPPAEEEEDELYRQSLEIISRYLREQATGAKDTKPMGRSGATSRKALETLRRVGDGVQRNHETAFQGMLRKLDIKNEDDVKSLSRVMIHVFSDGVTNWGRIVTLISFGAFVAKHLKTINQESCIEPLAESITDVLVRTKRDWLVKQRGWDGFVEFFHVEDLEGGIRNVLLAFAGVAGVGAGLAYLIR

## CC1=CC2=NC(=O)/C(=C\c3c(C)[nH]c4ccc(C)cc34)C(=N)N2O1
[1]
  IC50: 33.3 µM (active)
[2]
  IC50: > 100 µM (inactive)
Prothrombin
  IC50: 32.1 µM (active)

## C=CCOc1nc2c(c(=O)n(C)c(=O)n2C)n1Cc1ccc(Cl)cc1Cl
[3]
  AC50: 2.15 µM (active)
[4]
  AC50: 7.4 µM (active)
Protein Wnt-3a
  IC50: 29.7 µM (inactive)

## CCOC(=O)c1ccc(NC(=O)c2cc3ccccc3o2)cc1
Caspase-3
  IC50: 23.7 µM (active)
[5]
  IC50: 5.71 µM (active)
[6]
  IC50: 7.74 µM (active)
[7]
  IC50: > 100 µM (inactive)

## COc1ccc(C2=NN(c3nc(-c4ccccc4)c(CC(=O)O)s3)C(c3ccco3)C2)cc1 (centres undefined)
[8]
  IC50: 6.5 µM (active)
[9]
  IC50: 8.39 µM (active)
[10]
  IC50: 18.5 µM (active)

## CSC[C@H](NC(=O)COc1cc2c(c3oc(=O)c(C)c(C)c13)CCC(C)(C)O2)C(=O)O
Beta-lactamase [11]
  IC50: > 59.6 µM (inactive)
Beta-lactamase [12]
  IC50: > 59.6 µM (inactive)
Beta-lactamase [13]
  IC50: > 59.6 µM (inactive)

## Cc1cc(/C=C2\SC(=S)NC2=O)c(C)n1C
Cytochrome P450 2C19
  AC50: 39.8 µM (inconclusive)
[1]
  IC50: 16.5 µM (active)
[2]
  IC50: 15.2 µM (active)
Prothrombin
  IC50: 19.4 µM (active)
Cytochrome P450 3A4
  AC50: 25.1 µM (inconclusive)
Cytochrome P450 2C9
  AC50: 1.26 µM (inconclusive)

## CCOC(=O)c1c(NC(=O)COc2ncnc3ccccc23)sc(C(C)=O)c1C
Protein Wnt-3a
  IC50: 6.86 µM (active)

## Cc1ccc([N+](=O)[O-])cc1S(=O)(=O)Nc1cccc(-c2ccc(N3CCCC3)nn2)c1
[14]
  CC50: 23 µM (active)
[9]
  IC50: 17.7 µM (active)
[10]
  IC50: 39.2 µM (active)

## C=C(c1cccc2ccccc12)P(=O)(O)O
Beta-lactamase [11]
  IC50: > 59.6 µM (inactive)
Beta-lactamase [12]
  IC50: > 59.6 µM (inactive)
Beta-lactamase [13]
  IC50: > 59.6 µM (inactive)
[15]
  IC50: 27 µM (not active)

## S=c1[nH]nc(-c2ccccc2)n1CC1CCCO1 (centres undefined)
Beta-lactamase [11]
  IC50: > 59.6 µM (inactive)
Beta-lactamase [12]
  IC50: > 59.6 µM (inactive)
Beta-lactamase [13]
  IC50: > 59.6 µM (inactive)

## Cc1ccc(NC(=O)C(C)SCc2nc(O)c3c4c(sc3n2)CCCC4)nc1 (centres undefined)
[1]
  IC50: 21.9 µM (active)
[2]
  IC50: > 100 µM (inactive)
Prothrombin
  IC50: 17.2 µM (active)

## O=C(c1ccc2c(=O)n(Cc3ccco3)c(=S)[nH]c2c1)N1CCN(Cc2ccccc2)CC1
[9]
  IC50: 23.5 µM (active)
[10]
  IC50: 57.7 µM (active)

## Cc1cccc(C(=O)NC2CCN(CC(=O)Nc3ccccc3Cl)CC2)c1
[16]
  AC50: 1.04 µM (active)

## O=C(C[C@@H]1C[C@@H]2c3cc(NC(=O)c4cccnc4)ccc3O[C@@H]2[C@@H](CO)O1)NCc1cccc(F)c1
[16]
  AC50: 5.98 µM (active)

## O=C(Nc1ccc2c(c1)[C@H]1C[C@@H](CC(=O)N3CCc4ccccc4C3)O[C@H](CO)[C@H]1O2)c1cccnc1
[16]
  AC50: 6.24 µM (active)

## CCc1nc(N)nc(N)c1-c1ccc(N(C)Cc2ccccc2)c([N+](=O)[O-])c1
[3]
  AC50: < 0.26 µM (active)
[17]
  AC50: < 0.26 µM (active)
Protein Wnt-3a
  IC50: 5.28 µM (active)
